Values of other authors in patent CN103893129A, “帕潘立酮缓释微球及其注射剂和该缓释微球的制备方法” (CHONGQING DAXIN PHARMACEUTICALS Co Ltd OF PKU INTERNATIONAL …, priority 2012, dated 2014).

System: schizophrenia (精神分裂症)

Cc1nc2n(c(=O)c1CCN1CCC(c3noc4cc(F)ccc34)CC1)CCCC2O (centres unmarked) [帕潘立酮, 6,7,8,9-四氢-3-(2-(4-(6-氟-1,2-苯并异唑-3-基)-1-哌啶基)乙基)-9-羟基-2-甲基-4H-吡啶并[2,1-a]嘧啶-4-酮]
efficacy on positive and negative symptoms of schizophrenia (clinical): 对精神分裂症阳性症状和阴性症状均有疗效
relapse rate of schizophrenia (patients): 可有效延迟精神分裂症的复发率
